# Measurements taken from patent US20260130370A1, “PLANT ACTIVATOR” (IBIDEN CO., LTD., priority 2021, published 2026).
# Tested on: potherb mustard (“Mizuna”, Brassica rapa var. laciniifolia)
# Test: Evaluation of the Mizuna (potherb mustard) growth
# Type: in vivo
# Details: 0.05 mg/L foliar spraying (300 L/10a) 9 and 12 days after sowing, harvested 21 days after sowing
# Method: Dilutions were prepared by adding distilled water to the above-obtained trihydroxyoctadecaenoic acid solution, ketol fatty acid solution, and culture broth containing fatty acid metabolites, so that the final concentration of each of trihydroxyoctadecaenoic acid, ketol fatty acids, and fatty acid metabolites was 0.05 mg/L, and the resulting dilutions gave treatment solutions. A 72-well cell tray was filled with culture soil (TAKII & CO., LTD, trade name “Tanemaki Baido”), and the forced sprouting seeds of potherb mustard were sown in. After budding, the potherb mustard seedlings were thinned out for two plants per cell. Light condition was set for 12 hours for light period/12 hours for dark period. Water was supplied by irrigating with an appropriate amount of tap water about once every four days. 9 and 12 days after sowing, the plants were treated with foliar spraying by spraying each of the treatment solutions (300 L/10a) to the above-ground part of plants using a sprayer. The negative control was not subjected for the spraying of the treatment solution (“no treatment area”).
# 21 days after sowing, the plants were harvested and the wet weight of the above-ground part of plants per plant and the leaf length were measured.
compound,measurement,setting,value
"CC/C=C\C/C=C\CC(=O)C(O)CCCCCCCC(=O)O (centres unmarked) [ketol fatty acid, 9-hydroxy-10-oxo-12 (Z), 15 (Z)-octadecadienoic acid]",wet weight of the above-ground part,"average n=20, no treatment area 0.19 g/plant",little increase
same,leaf length,"average n=20, no treatment area 8.1 cm",reduced
